Results reported in patent publication US11136315B2, “CXCR2 antagonist” (MEDSHINE DISCOVERY INC., priority 2018, dated 2021).

Experiments:
CXCR2 = CXCR2 (Homo sapiens (Human), UniProt P25025); test: PathHunter CXCR2 β-arrestin cell assay, antagonism of CXCL8 (EC80); format: cell-based; conditions: PathHunter CXCR2 β-arrestin cells, CXCL8 agonist at EC80
Method: The IC50 values were determined to evaluate the antagonistic activity of the test compounds against CXCR2.
PathHunter® CXCR2 β-arrestin cells (DiscoverX) were grown under normal conditions and seeded on a white-walled 384-microwell plate at 20 μL/well. Before testing, the cells were incubated at 37° C. for an appropriate time. The test compounds were serially diluted in DMSO at a three-fold dilution factor to obtain 8 serially diluted test compounds. Shortly before the test, the above serially diluted test compounds were further diluted with test buffer to 5 times the test concentration. 5 μL of the further diluted test compounds was added to the cells and then the cells were incubated at 37° C. for 30 minutes. The vehicle concentration was 1%. 5 μL of 6×EC80 agonist (CXCL8) buffer was added to the cells and then the cells were incubated at 37° C. for 90 minutes. 15 μL (50% v/v) of PathHunter detection reagent mixture was added in one portion, followed by one-hour incubation to generate the test signal. The microplates were read on a PerkinElmer Envision™ instrument for chemiluminescence signal. The biological activity of the test compounds was analyzed by CBIS data analysis suite (ChemInnovation, CA) and shown as IC50 values.

[1] = Pharmacokinetic evaluation in C57BL/6 mice; format: in vivo; conditions: male, mouse, plasma; for clearance / half-life / AUC: intravenous 1 mpk / gavage 5 mpk study; for half-life: read-out: Half-life T1/2 (converted); for AUC: route not stated, unit printed shifted under first column, read-out: Area under the drug concentration time curve (AUC); for bioavailability: po, 5 mg/kg, gavage 5 mpk vs intravenous 1 mpk, read-out: Bioavailability (F)
Method: The pharmacokinetic parameters of the compounds in C57BL/6 mice were investigated.
C57BL/6 mice (male, 18-30 g, 7-9 weeks old, Shanghai Lingchang Biotechnology Co., Ltd.)
Formulations containing an aqueous solution of 1% DMSO/10% hydroxypropyl-β-cyclodextrin as the vehicle were administered by intravenous injection (1 mpk), formulations containing an aqueous solution of 1% DMSO/1% hydroxypropyl methylcellulose/0.2% Tween 80 as the vehicle were administered by gavage (5 mpk). Before the animal experiment, all animals were fasted, and fed 4 hours after administration; all animals were free to drink water. The time points of blood collection: intravenous injection administration group: 0.083, 0.25, 0.5, 1, 2, 4, 6, 8 and 24 hours; gavage administration group: 0.25, 0.5, 1, 2, 4, 6, 8 and 24 hours.
(§1) Whole blood samples (0.03 mL) were collected through the saphenous vein (or other suitable blood collection sites) at the prescribed time points, and all blood samples were added to labeled plastic centrifuge tubes containing K2-EDTA anticoagulant. After the blood samples were collected, the plasma was isolated by centrifugation, immediately placed in dry ice and stored at low temperature. All samples were analyzed by LC-MS/MS with a minimum detection limit of 2 nM. The non-compartmental model of WinNonlin™ Version 6.3 (Pharsight, Mountain View, Calif.) pharmacokinetic software was used to process the mean plasma concentration, and the linear-log trapezoid method was used to calculate the pharmacokinetic parameters.

[2] = Pharmacokinetic and tissue distribution in Lewis rats; format: in vivo; conditions: male, rat, lung / plasma, oral, 5 mg/kg, gavage 5 mpk, read-out: Ratio in lung blood
Method: The pharmacokinetic and tissue distribution of the compounds in Lewis rats was tested.
Lewis rats (male, 202-239 g, 7-9 weeks old, Beijing Viton Lihua)
Formulations containing an aqueous solution of 1% hydroxypropyl methylcellulose/0.2% Tween 80 as the vehicle were administered by gavage (5 mpk). Before the animal experiment, all animals were fasted overnight, and fed 4 hours after administration; all animals were free to drink water. The time points of blood collection: danirixin administration group: 0.25, 1, 8 hours; gavage administration group: 0.5, 1, 4 hours.
as §1, with “(0.2” for “(0.03”, “separated” for “isolated”, “log-linear” for “linear-log”

Sequence of CXCR2 (P25025 whole entry): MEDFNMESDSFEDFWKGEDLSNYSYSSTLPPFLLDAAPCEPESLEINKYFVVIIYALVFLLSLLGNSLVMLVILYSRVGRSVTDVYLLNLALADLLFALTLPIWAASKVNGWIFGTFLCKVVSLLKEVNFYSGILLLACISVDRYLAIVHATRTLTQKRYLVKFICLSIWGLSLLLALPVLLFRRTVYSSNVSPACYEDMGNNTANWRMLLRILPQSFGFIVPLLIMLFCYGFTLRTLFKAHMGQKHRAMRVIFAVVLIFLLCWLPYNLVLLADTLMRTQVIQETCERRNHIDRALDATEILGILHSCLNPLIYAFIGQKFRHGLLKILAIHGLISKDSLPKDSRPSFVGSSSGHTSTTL

SMILES	IC50 (CXCR2)	other results
O=C(Nc1ccc(Cl)c(S(=O)(=O)[C@H]2CCCNC2)c1O)NC1CCCc2occc21 (single isomer, unassigned) [WX001A]	152 nM	
CC(C)S(=O)(=O)c1c(Cl)ccc(NC(=O)NC2CCCc3occc32)c1O (single isomer, unassigned) [WX002A]	45 nM	
CC(C)(C)OC(=O)N1CCC[C@H](S(=O)(=O)c2c(Cl)ccc(NC(=O)NC3CCCc4ccoc43)c2O)C1 (single isomer, unassigned) [WX004A]	43 nM	
O=C(Nc1ccc(Cl)c(S(=O)(=O)[C@H]2CCCNC2)c1O)NC1CCCc2ccoc21 (single isomer, unassigned) [WX013A]	14 nM	clearance [1]: 30.8 mL/min/kg; half-life [1]: 2.21 h; AUC [1]: 4.44 µM·h; bioavailability [1]: 75.5%
O=C(Nc1ccc(Cl)c(S(=O)(=O)CCNC(=O)C2CC2)c1O)NC1CCCc2ccoc21 (single isomer, unassigned) [WX016A]	134 nM	
O=C(CS(=O)(=O)c1c(Cl)ccc(NC(=O)NC2CCCc3ccoc32)c1O)NCC(F)(F)F (single isomer, unassigned) [WX018A]	133 nM	
O=C(Nc1ccc(Cl)c(S(=O)(=O)C2CC3(CNC3)C2)c1O)NC1CCCc2ccoc21 (single isomer, unassigned) [WX021A]	720 nM	
O=C(Nc1ccc(Cl)c(S(=O)(=O)C2CC3(CCNCC3)C2)c1O)N[C@H]1CCCc2ccoc21 (single isomer, unassigned) [WX022A]	366 nM	
O=C(Nc1ccc(Cl)c(S(=O)(=O)C2CCNCC2)c1O)N[C@H]1CCCc2ccoc21 (single isomer, unassigned) [WX023A]	36 nM	
O=C(Nc1ccc(Cl)c(S(=O)(=O)C2CCCNC2)c1O)NC1CCCc2sccc21 (single isomer, unassigned) [WX024A]	525 nM	
O=C(Nc1ccc(Cl)c(S(=O)(=O)C2CCCNC2)c1O)NC1CCCc2sccc21 (single isomer, unassigned) [WX024B]	667 nM	
O=C(Nc1ccc(Cl)c(S(=O)(=O)C2CC2)c1O)N[C@@H]1CCCc2sccc21 (single isomer, unassigned) [WX025B]	139 nM	
O=C(Nc1ccc(Cl)c(S(=O)(=O)C2CC2)c1O)N[C@H]1CCCc2ccsc21 (single isomer, unassigned) [WX027A]	269 nM	
Cc1cc2c(o1)C(NC(=O)Nc1ccc(Cl)c(S(=O)(=O)[C@H]3CCCNC3)c1O)CCC2 (single isomer, unassigned) [WX029A]	2 nM	
Cc1cc2c(o1)C(NC(=O)Nc1ccc(Cl)c(S(=O)(=O)[C@H]3CCCNC3)c1O)CCC2 (single isomer, unassigned) [WX029B]	245 nM	
O=C(Nc1ccc(Cl)c(S(=O)(=O)[C@H]2CCCNC2)c1O)NC1CCCc2cc(C(F)(F)F)oc21 (single isomer, unassigned) [WX030B]	22 nM	Kp [2]: 2.17
O=C(Nc1ccc(Cl)c(S(=O)(=O)C2CCCCC2)c1O)N[C@H]1CCCc2ccoc21 [WX011A]	70 nM	
O=C(Nc1ccc(Cl)c(S(=O)(=O)C2CC2)c1O)NC1CCCc2ncsc21 (stereo not shown) [WX028]	472 nM	
Cc1cc2c(o1)C(NC(=O)Nc1ccc(Cl)c(S(=O)(=O)[C@H]3CCCNC3)c1O)CCC2 (stereo partly shown) [WX029]	15 nM	
O=C(Nc1ccc(Cl)c(S(=O)(=O)C2CC2)c1O)NC1CCCc2cc(C(F)(F)F)oc21 (stereo not shown) [WX032]	144 nM	
Cc1cc2c(o1)C(NC(=O)Nc1ccc(Cl)c(S(=O)(=O)C3CC3)c1O)CCC2 (stereo not shown) [WX033]	6 nM	
CC(C)S(=O)(=O)c1c(Cl)ccc(NC(=O)NC2CCCc3cc(C(F)(F)F)oc32)c1O (stereo not shown) [WX034]	55 nM	
CC1(C)NCCCC1S(=O)(=O)c1c(Cl)ccc(NC(=O)NC2CCCc3ccoc32)c1O (stereo not shown) [WX036]	23 nM	

Further lines, with some results ahead:

IC50 (CXCR2)	SMILES	other results
14 nM	CC(C)(C)S(=O)(=O)c1c(Cl)ccc(NC(=O)NC2CCCc3ccoc32)c1O (single isomer, unassigned) [WX005A]	
22 nM	O=C(Nc1ccc(Cl)c(S(=O)(=O)C2CC2)c1O)NC1CCCc2ccoc21 (single isomer, unassigned) [WX006A]	clearance [1]: 8.3 mL/min/kg; half-life [1]: 3.09 h; AUC [1]: 20.1 µM·h; bioavailability [1]: 83.8%
42 nM	CCS(=O)(=O)c1c(Cl)ccc(NC(=O)NC2CCCc3ccoc32)c1O (single isomer, unassigned) [WX007A]	
72 nM	COC(=O)NCCS(=O)(=O)c1c(Cl)ccc(NC(=O)NC2CCCc3ccoc32)c1O (single isomer, unassigned) [WX017A]	
177 nM	CC(C)(Cc1ccccc1)S(=O)(=O)c1c(Cl)ccc(NC(=O)N[C@H]2CCCc3ccoc32)c1O (single isomer, unassigned) [WX020A]	
17 nM	CC(C)S(=O)(=O)c1c(Cl)ccc(NC(=O)N[C@H]2CCCc3ccoc32)c1O [WX003A]	clearance [1]: 11.2 mL/min/kg; half-life [1]: 2.22 h; AUC [1]: 12.7 µM·h; bioavailability [1]: 70.3%
122 nM	CS(=O)(=O)c1c(Cl)ccc(NC(=O)N[C@H]2CCCc3ccoc32)c1O [WX008A]	
177 nM	O=C(Nc1ccc(Cl)c(S(=O)(=O)C2CCC2)c1O)NC1CCCc2ccoc21 (stereo not shown) [WX009]	
61 nM	O=C(Nc1ccc(Cl)c(S(=O)(=O)C2CCCC2)c1O)N[C@H]1CCCc2ccoc21 [WX010A]	
17 nM	O=C(Nc1ccc(Cl)c(S(=O)(=O)CC(F)(F)F)c1O)N[C@H]1CCCc2ccoc21 [WX012A]	clearance [1]: 15.8 mL/min/kg; half-life [1]: 0.94 h; AUC [1]: 9.39 µM·h; bioavailability [1]: 82.5%
232 nM	O=C(Nc1ccc(Cl)c(S(=O)(=O)CCN2C(=O)c3ccccc3C2=O)c1O)NC1CCCc2ccoc21 (stereo not shown) [WX014]	
186 nM	NCCS(=O)(=O)c1c(Cl)ccc(NC(=O)NC2CCCc3ccoc32)c1O (stereo not shown) [WX015]	
